Among the data in PubChem BioAssay AID248 (DTP/NCI, 2004) are T/C values, retold here.

“And” between values parts separate entries of the source, which are not always exact repeats. Equal values may be shown once. Inconclusive results and toxic doses are left out.

The test has as its system L1210 leukemia ip in BDF1 mice, survival T/C. In words: NCI In Vivo Anticancer Drug Screen. Data for tumor model L1210 Leukemia (intraperitoneal) in B6D2F1 (BDF1) mice. The note with it: endpoint: mean survival time, higher = longer survival. In short, it runs like this: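 Value reflects the ratio of survival in compound-treated mice to survival in vehicle-treated controls, with both groups carrying the same transplanted tumor.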

Setting [1] is: dose: 200.0 mg/kg/injection, schedule: Q01DX001 (ip), vehicle: saline.
Where [2] appears, read: dose: 400.0 mg/kg/injection, schedule: Q01DX001 (ip), vehicle: saline.
Setting [3] is: dose: 100.0 mg/kg/injection, schedule: Q01DX001 (ip), vehicle: saline.

For `CSc1ncc(Br)c(Sc2nc(N)nc3nc[nH]c23)n1`, the T/C by setting is: (dose: 0.25 mg/kg/injection, schedule: Q01DX Z (ip), vehicle: other) 107 % of control; (dose: 0.5 mg/kg/injection, schedule: Q01DX Z (ip), vehicle: other) 103 % of control; (dose: 1.0 mg/kg/injection, schedule: Q01DX Z (ip), vehicle: methylcellulose (MC)) 98 % of control; (dose: 1.0 mg/kg/injection, schedule: Q01DX Z (ip), vehicle: other) 103 % of control; (dose: 3.0 mg/kg/injection, schedule: Q01DX Z (ip), vehicle: carboxymethylcellulose (CMC)) 121 % of control; (dose: 3.0 mg/kg/injection, schedule: Q01DX Z (ip), vehicle: methylcellulose (MC)) 97 % of control. Besides, the T/C reads like this: (dose: 6.0 mg/kg/injection, schedule: Q01DX Z (ip), vehicle: methylcellulose (MC)) 107 % of control; (dose: 10.0 mg/kg/injection, schedule: Q01DX001 (ip), vehicle: saline with Tween-80) 156 % of control; (dose: 12.0 mg/kg/injection, schedule: Q01DX001 (ip), vehicle: saline with Tween-80) 190 % of control; (dose: 12.0 mg/kg/injection, schedule: Q01DX Z (ip), vehicle: carboxymethylcellulose (CMC)) 158 % of control; (dose: 14.0 mg/kg/injection, schedule: Q01DX001 (ip), vehicle: saline with Tween-80) 200 % of control; (dose: 19.0 mg/kg/injection, schedule: Q01DX001 (ip), vehicle: saline with Tween-80) 162 % of control. The T/C runs as follows: (dose: 29.0 mg/kg/injection, schedule: Q01DX001 (ip), vehicle: saline) 244 % of control; (dose: 30.0 mg/kg/injection, schedule: Q01DX001 (ip), vehicle: saline with Tween-80) 162 % of control; (dose: 32.0 mg/kg/injection, schedule: Q01DX Z (ip), vehicle: other) 96 % of control; (dose: 33.5 mg/kg/injection, schedule: Q01DX Z (ip), vehicle: carboxymethylcellulose (CMC)) 107 % of control; (dose: 44.0 mg/kg/injection, schedule: Q01DX001 (ip), vehicle: saline with Tween-80) 164 % of control; (dose: 45.0 mg/kg/injection, schedule: Q01DX001 (ip), vehicle: saline) 236 % of control. For the same compound, the T/C (dose: 48.0 mg/kg/injection, schedule: Q01DX Z (ip), vehicle: carboxymethylcellulose (CMC)) was 103 % of control; the T/C (dose: 50.0 mg/kg/injection, schedule: Q01DX001 (ip), vehicle: carboxymethylcellulose (CMC)) is 158 % of control; the T/C (dose: 66.0 mg/kg/injection, schedule: Q01DX001 (ip), vehicle: saline) is 101 % of control; the T/C (dose: 100.0 mg/kg/injection, schedule: Q01DX001 (ip), vehicle: saline with Tween-80) is 104 % of control; the T/C (dose: 100.0 mg/kg/injection, schedule: Q01DX Z (ip), vehicle: methylcellulose (MC)) is 91 % of control; the T/C (dose: 150.0 mg/kg/injection, schedule: Q01DX001 (ip), vehicle: saline with Tween-80) was 120 % of control. Further, the T/C was 105 % of control (dose: 150.0 mg/kg/injection, schedule: Q01DX001 (ip), vehicle: saline); 103 % of control (dose: 200.0 mg/kg/injection, schedule: Q01DX001 (ip), vehicle: carboxymethylcellulose (CMC)); 122 % of control under setting [1]; 94 % of control (dose: 400.0 mg/kg/injection, schedule: Q01DX001 (ip), vehicle: carboxymethylcellulose (CMC)); 99 % of control under setting [2].

In the case of `O=S(=O)(O)CBr`, the T/C under setting [3] is 107 % of control; the T/C (dose: 100.0 mg/kg/injection, schedule: Q01DX009 (ip), vehicle: saline) was 91 % of control; the T/C (dose: 100.0 mg/kg/injection, schedule: Q04DX003 (ip), vehicle: saline) is 100 % of control; the T/C under setting [1] was 106 % of control; the T/C (dose: 200.0 mg/kg/injection, schedule: Q01DX009 (ip), vehicle: saline) is 96 % of control; the T/C (dose: 200.0 mg/kg/injection, schedule: Q04DX003 (ip), vehicle: saline) was 100 % of control. Further, the T/C runs as follows: under setting [2], 109 % of control; (dose: 400.0 mg/kg/injection, schedule: Q01DX009 (ip), vehicle: saline) 98 % of control; (dose: 400.0 mg/kg/injection, schedule: Q04DX003 (ip), vehicle: saline) 106 % of control.

Regarding `CCCCNC(=O)Nc1cc(Cl)ccc1C`, the T/C reads like this: (dose: 3.12 mg/kg/injection, schedule: Q01DX009 (ip), vehicle: Klucel (hydroxypropylcellulose) (HPC)) 97 % of control; (dose: 6.25 mg/kg/injection, schedule: Q01DX009 (ip), vehicle: Klucel (hydroxypropylcellulose) (HPC)) 92 % of control; (dose: 12.5 mg/kg/injection, schedule: Q01DX009 (ip), vehicle: Klucel (hydroxypropylcellulose) (HPC)) 101 % of control and 90 % of control; (dose: 25.0 mg/kg/injection, schedule: Q01DX009 (ip), vehicle: Klucel (hydroxypropylcellulose) (HPC)) 89 % of control; (dose: 100.0 mg/kg/injection, schedule: Q01DX009 (ip), vehicle: Klucel (hydroxypropylcellulose) (HPC)) 94 % of control and 86 % of control; (dose: 100.0 mg/kg/injection, schedule: Q04DX003 (ip), vehicle: Klucel (hydroxypropylcellulose) (HPC)) 95 % of control. Further, the T/C reads like this: (dose: 200.0 mg/kg/injection, schedule: Q04DX003 (ip), vehicle: Klucel (hydroxypropylcellulose) (HPC)) 90 % of control; (dose: 400.0 mg/kg/injection, schedule: Q04DX003 (ip), vehicle: Klucel (hydroxypropylcellulose) (HPC)) 90 % of control.

As to `CN(Cc1cnc2nc(N)nc(N)c2n1)c1ccc(C(=O)NC(CCC(=O)O)C(=O)O)c(Cl)c1Cl` (configuration not stated), the T/C runs as follows: (dose: 12.5 mg/kg/injection, schedule: Q01DX009 (ip), vehicle: sodium bicarbonate) 157 % of control; (dose: 25.0 mg/kg/injection, schedule: Q01DX009 (ip), vehicle: sodium bicarbonate) 157 % of control; (dose: 50.0 mg/kg/injection, schedule: Q01DX009 (ip), vehicle: sodium bicarbonate) 155 % of control.

Regarding `Cc1ccc(S(=O)(=O)OC2C(SCc3ccccc3)OCC(OC(=O)c3ccccc3)C2OC(=O)c2ccccc2)cc1` (configuration not stated), the T/C is 93 % of control under setting [3], 88 % of control under setting [1] and 88 % of control under setting [2].
